Measurements as given in publication PMC9476787 (Chinese Herbal Medicines, 2020).

Tests used:
[1] = target: T1, PTP1B (human, recombinant) (Homo sapiens, UniProt P18031); assay: PTP1B inhibition assay; assay type: biochemical
T1 sequence (P18031 1-435): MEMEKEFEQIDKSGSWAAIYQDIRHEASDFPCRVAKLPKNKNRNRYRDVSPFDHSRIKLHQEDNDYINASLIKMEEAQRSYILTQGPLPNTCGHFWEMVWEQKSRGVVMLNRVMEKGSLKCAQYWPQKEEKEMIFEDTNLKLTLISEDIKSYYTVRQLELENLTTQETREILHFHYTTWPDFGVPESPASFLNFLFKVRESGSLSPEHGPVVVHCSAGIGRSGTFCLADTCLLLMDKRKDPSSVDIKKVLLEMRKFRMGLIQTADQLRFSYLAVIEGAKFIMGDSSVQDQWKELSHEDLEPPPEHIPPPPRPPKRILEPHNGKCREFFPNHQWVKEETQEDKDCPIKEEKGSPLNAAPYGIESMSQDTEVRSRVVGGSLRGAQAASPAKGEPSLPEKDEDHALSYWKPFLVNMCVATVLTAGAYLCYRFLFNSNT

yeast α-glucosidase = assay: α-glucosidase inhibition assay; assay type: biochemical; details: read-out: IC50 α-Glucosidase; Table 2; mean ± SD, n = 3

SMILES	IC50 [1] [µM]	IC50 (yeast α-glucosidase) [µM]
CC[C@H](CC[C@@H](C)[C@H]1CC[C@H]2[C@@H]3CC=C4C[C@@H](O)CC[C@]4(C)[C@H]3CC[C@]12C)C(C)C [Compound 6, β-Sitosterol]	> 100	69.41 ± 0.03
CC1(C)CC[C@]2(C(=O)O)CC[C@]3(C)C(=CC[C@@H]4[C@@]5(C)CC[C@H](O)C(C)(C)[C@@H]5CC[C@]43C)[C@@H]2C1 [Compound 7, Oleanolic acid]		41.04 ± 0.34
